Reference: ChEMBL document CHEMBL4145521, “Regioselective synthesis of 3,4-diaryl-5-unsubstituted isoxazoles, analogues of natural cytostatic combretastatin A4” (Eur J Med Chem, 2018)

What was measured:
Format in all cases: functional
M14 = test: Cytotoxicity against human M14 cells assessed as cell growth at 0.01 uM incubated for 48 hrs by sulforhodamine B assay relative to control; details: M14, 48 h, read-out: Activity
MDA-MB-435 = test: Cytotoxicity against human MDA-MB-435 cells assessed as cell growth at 0.01 uM incubated for 48 hrs by sulforhodamine B assay relative to control; details: MDA-MB-435, 48 h, read-out: Activity
SR = test: Cytotoxicity against human SR cells assessed as cell growth at 0.1 uM incubated for 48 hrs by sulforhodamine B assay relative to control; details: read-out: Activity
NCI-H322M = test: Cytotoxicity against human NCI-H322M cells assessed as cell growth at 0.1 uM incubated for 48 hrs by sulforhodamine B assay relative to control; details: read-out: Activity
SW-620 = test: Cytotoxicity against human SW620 cells assessed as cell growth at 0.1 uM incubated for 48 hrs by sulforhodamine B assay relative to control; details: SW-620, 48 h, read-out: Activity
U-251 [1] = test: Cytotoxicity against human U251 cells assessed as cell growth at 0.1 uM incubated for 48 hrs by sulforhodamine B assay relative to control; details: U-251, 48 h, read-out: Activity
UACC-62 = test: Cytotoxicity against human UACC62 cells assessed as cell growth at 0.1 uM incubated for 48 hrs by sulforhodamine B assay relative to control; details: UACC-62, 48 h, read-out: Activity
OVCAR-4 = test: Cytotoxicity against human OVCAR4 cells assessed as cell growth at 0.1 uM incubated for 48 hrs by sulforhodamine B assay relative to control; details: OVCAR-4, 48 h, read-out: Activity
ACHN = test: Cytotoxicity against human ACHN cells assessed as cell growth at 0.1 uM incubated for 48 hrs by sulforhodamine B assay relative to control; details: read-out: Activity
MCF7 [2] = test: Cytotoxicity against human MCF7 cells assessed as cell growth at 0.1 uM incubated for 48 hrs by sulforhodamine B assay relative to control; details: MCF7, 48 h, read-out: Activity
MDA-MB-231 = test: Cytotoxicity against human MDA-MB-231 cells assessed as cell growth at 0.1 uM incubated for 48 hrs by sulforhodamine B assay relative to control; details: MDA-MB-231, 48 h, read-out: Activity
MDA-MB-468 [3] = test: Cytotoxicity against human MDA-MB-468 cells assessed as cell growth at 0.1 uM incubated for 48 hrs by sulforhodamine B assay relative to control; details: MDA-MB-468, 48 h, read-out: Activity
SF-539 [4] = test: Cytotoxicity against human SF539 cells assessed as cell growth at 1 uM incubated for 48 hrs by sulforhodamine B assay relative to control; details: SF-539, 48 h, read-out: Activity
Malme-3M = test: Cytotoxicity against human MALME-3M cells assessed as cell growth at 1 uM incubated for 48 hrs by sulforhodamine B assay relative to control; details: read-out: Activity
SK-MEL-28 = test: Cytotoxicity against human SK-MEL-28 cells assessed as cell growth at 1 uM incubated for 48 hrs by sulforhodamine B assay relative to control; details: SK-MEL-28, 48 h, read-out: Activity
SK-OV-3 = test: Cytotoxicity against human SKOV3 cells assessed as cell growth at 1 uM incubated for 48 hrs by sulforhodamine B assay relative to control; details: SK-OV-3, 48 h, read-out: Activity
MCF7 [5] = test: Cytotoxicity against human MCF7 cells assessed as cell growth at 1 uM incubated for 48 hrs by sulforhodamine B assay relative to control; details: MCF7, 48 h, read-out: Activity
BT-549 [6] = test: Cytotoxicity against human BT549 cells assessed as cell growth at 1 uM incubated for 48 hrs by sulforhodamine B assay relative to control; details: BT-549, 48 h, read-out: Activity
MDA-MB-468 [7] = test: Cytotoxicity against human MDA-MB-468 cells assessed as cell growth at 1 uM incubated for 48 hrs by sulforhodamine B assay relative to control; details: MDA-MB-468, 48 h, read-out: Activity
U-251 [8] = test: Cytotoxicity against human U251 cells assessed as cell growth at 10 uM incubated for 48 hrs by sulforhodamine B assay relative to control; details: U-251, 48 h, read-out: Activity
PC-3 [9] = test: Cytotoxicity against human PC3 cells assessed as cell growth at 10 uM incubated for 48 hrs by sulforhodamine B assay relative to control; details: PC-3, 48 h, read-out: Activity
NCI-H460 = test: Cytotoxicity against human NCI-H460 cells assessed as cell growth at 100 uM incubated for 48 hrs by sulforhodamine B assay relative to control; details: NCI-H460, 48 h, read-out: Activity
HCT-15 = test: Cytotoxicity against human HCT15 cells assessed as cell growth at 100 uM incubated for 48 hrs by sulforhodamine B assay relative to control; details: HCT-15, 48 h, read-out: Activity
SF-539 [10] = test: Cytotoxicity against human SF539 cells assessed as cell growth at 100 uM incubated for 48 hrs by sulforhodamine B assay relative to control; details: SF-539, 48 h, read-out: Activity
SK-MEL-5 = test: Cytotoxicity against human SK-MEL-5 cells assessed as cell growth at 100 uM incubated for 48 hrs by sulforhodamine B assay relative to control; details: SK-MEL-5, 48 h, read-out: Activity
OVCAR-3 = test: Cytotoxicity against human OVCAR3 cells assessed as cell growth at 100 uM incubated for 48 hrs by sulforhodamine B assay relative to control; details: OVCAR-3, 48 h, read-out: Activity
786-0 = test: Cytotoxicity against human 786-0 cells assessed as cell growth at 100 uM incubated for 48 hrs by sulforhodamine B assay relative to control; details: 786-0, 48 h, read-out: Activity
BT-549 [11] = test: Cytotoxicity against human BT549 cells assessed as cell growth at 100 uM incubated for 48 hrs by sulforhodamine B assay relative to control; details: BT-549, 48 h, read-out: Activity
HOP-62 = test: Cytotoxicity against human HOP62 cells incubated for 48 hrs by sulforhodamine B assay; details: HOP-62, 48 h
HT-29 = test: Cytotoxicity against human HT-29 cells incubated for 48 hrs by sulforhodamine B assay; details: HT-29, 48 h
PC-3 [12] = test: Cytotoxicity against human PC3 cells incubated for 48 hrs by sulforhodamine B assay; details: PC-3, 48 h
DU-145 = test: Cytotoxicity against human DU145 cells incubated for 48 hrs by sulforhodamine B assay; details: DU-145, 48 h

**Q.** With `COc1ccc(-c2nocc2-c2cc(OC)c(OC)c(OC)c2)cc1` as the compound, how does the growth at 0.01 µM (M14) read?
**A.** 90%

**Q.** And the growth at 0.01 µM (MDA-MB-435)?
**A.** 79%

**Q.** What about the growth at 0.1 µM (SR) of the same compound?
**A.** 42%

**Q.** What about the growth at 0.1 µM (NCI-H322M) of the same compound?
**A.** 76%

**Q.** And the growth at 0.1 µM (SW-620)?
**A.** 32%

**Q.** What about the growth at 0.1 µM (U-251 [1]) of the same compound?
**A.** 48%

**Q.** What about the growth at 0.1 µM (UACC-62) of the same compound?
**A.** 36%

**Q.** And the growth at 0.1 µM (OVCAR-4)?
**A.** 73%

**Q.** What about the growth at 0.1 µM (ACHN) of the same compound?
**A.** 62%

**Q.** What about the growth at 0.1 µM (MCF7 [2]) of the same compound?
**A.** 27%

**Q.** What about the growth at 0.1 µM (MDA-MB-231) of the same compound?
**A.** 72%

**Q.** What about the growth at 0.1 µM (MDA-MB-468 [3]) of the same compound?
**A.** 55%

**Q.** What about the growth at 1 µM (SF-539 [4]) of the same compound?
**A.** 1%

**Q.** And the growth at 1 µM (Malme-3M)?
**A.** 46%

**Q.** What about the growth at 1 µM (SK-MEL-28) of the same compound?
**A.** 58%

**Q.** And the growth at 1 µM (SK-OV-3)?
**A.** 38%

**Q.** What about the growth at 1 µM (MCF7 [5]) of the same compound?
**A.** 19%

**Q.** What about the growth at 1 µM (BT-549 [6]) of the same compound?
**A.** 33%

**Q.** What about the growth at 1 µM (MDA-MB-468 [7]) of the same compound?
**A.** 3%

**Q.** And the growth at 10 µM (U-251 [8])?
**A.** 19%

**Q.** What about the growth at 10 µM (PC-3 [9]) of the same compound?
**A.** 22%

**Q.** What about the growth at 100 µM (NCI-H460) of the same compound?
**A.** -37%

**Q.** And the growth at 100 µM (HCT-15)?
**A.** 1%

**Q.** And the growth at 100 µM (SF-539 [10])?
**A.** -15%

**Q.** What about the growth at 100 µM (SK-MEL-5) of the same compound?
**A.** -99%

**Q.** And the growth at 100 µM (OVCAR-3)?
**A.** -21%

**Q.** What about the growth at 100 µM (786-0) of the same compound?
**A.** -17%

**Q.** What about the growth at 100 µM (BT-549 [11]) of the same compound?
**A.** -24%

**Q.** What about the GI50 (HOP-62; read-out: GI50) of the same compound?
**A.** 0.259 µM

**Q.** What about the LC50 (HOP-62; read-out: LC50) of the same compound?
**A.** > 100 µM

**Q.** What about the TGI (HOP-62; read-out: TGI) of the same compound?
**A.** > 100 µM

**Q.** What about the GI50 (HOP-62; read-out: pGI50 (converted)) of the same compound?
**A.** 0.257 µM

**Q.** What about the LC50 (HOP-62; read-out: pLC50 (converted)) of the same compound?
**A.** > 100 µM

**Q.** And the TGI (HOP-62; read-out: pTGI)?
**A.** > 100 µM

**Q.** And the GI50 (HT-29; read-out: GI50)?
**A.** 0.0365 µM

**Q.** What about the LC50 (HT-29; read-out: LC50) of the same compound?
**A.** > 100 µM

**Q.** And the TGI (HT-29; read-out: TGI)?
**A.** 12 µM

**Q.** And the GI50 (HT-29; read-out: pGI50 (converted))?
**A.** 0.0363 µM

**Q.** And the LC50 (HT-29; read-out: pLC50 (converted))?
**A.** > 100 µM

**Q.** And the TGI (HT-29; read-out: pTGI (converted))?
**A.** 12 µM

**Q.** And the GI50 (PC-3 [12]; read-out: GI50)?
**A.** 0.0671 µM

**Q.** What about the LC50 (concentration killing 50% of cells) (PC-3 [12]; read-out: LC50) of the same compound?
**A.** > 100 µM

**Q.** What about the TGI (PC-3 [12]; read-out: TGI) of the same compound?
**A.** 42.5 µM

**Q.** What about the GI50 (PC-3 [12]; read-out: pGI50 (converted)) of the same compound?
**A.** 0.0676 µM

**Q.** What about the LC50 (concentration killing 50% of cells) (PC-3 [12]; read-out: pLC50 (converted)) of the same compound?
**A.** > 100 µM

**Q.** What about the TGI (PC-3 [12]; read-out: pTGI (converted)) of the same compound?
**A.** 42.7 µM

**Q.** What about the GI50 (DU-145; read-out: GI50) of the same compound?
**A.** 0.244 µM

**Q.** And the CC50 (DU-145; read-out: LC50 (the source's name))?
**A.** > 100 µM

**Q.** What about the TGI (DU-145; read-out: TGI) of the same compound?
**A.** > 100 µM

**Q.** What about the GI50 (DU-145; read-out: pGI50 (converted)) of the same compound?
**A.** 0.245 µM

**Q.** What about the CC50 (DU-145; read-out: pLC50 (the source's name) (converted)) of the same compound?
**A.** > 100 µM

**Q.** And the TGI (DU-145; read-out: pTGI)?
**A.** > 100 µM
